Assay results published in ChEMBL document CHEMBL3612013, “Cyclodextrin complexation highly enhances efficacy of arylsulfonylureido benzenesulfonamide carbonic anhydrase inhibitors as a topical antiglaucoma agents” (Bioorg Med Chem, 2015).
≈ marks a conversion by molar mass, not a printed value.

How the values were obtained:
[1] = Aqueous solubility in pH 7.4 PBS in presence of sulfobutyl-ether-beta cyclodextrin incubated for 48 hrs at 25 degC by spectrophotometry; assay type: physicochemical; conditions: PBS with sulfobutyl-ether-beta cyclodextrin
[2] = test system: Oryctolagus cuniculus; assay: (§1) Antiglaucoma activity in New Zealand albino rabbit model of carbomer-induced hypertensive eye glaucoma assessed as time duration showing reduction in intraocular pressure at 0.07% using compound complexed with cyclodextrin directly instilled into conjunctive pocket measured 24 hrs post drug administration; assay type: functional
[3] = Stability of the compound; assay type: physicochemical
[4] = Aqueous solubility in pH 7.4 PBS in presence of hydroxyethyl-beta cyclodextrin incubated for 48 hrs at 25 degC by spectrophotometry; assay type: physicochemical; conditions: PBS with hydroxyethyl-beta cyclodextrin
[5] = test system: Oryctolagus cuniculus; assay: as §1, with “as” for “as time duration showing reduction in”, “1 hr” for “24 hrs”, “administration (reference value: 45 to 50 mmHg)” for “administration”; assay type: functional
[6] = Aqueous solubility in pH 7.4 PBS in presence of hydroxypropyl-gamma cyclodextrin incubated for 48 hrs at 25 degC by spectrophotometry; assay type: physicochemical; conditions: PBS with hydroxypropyl-gamma cyclodextrin
[7] = Aqueous solubility in pH 7.4 PBS in presence of hydroxypropyl-alpha cyclodextrin incubated for 48 hrs at 25 degC by spectrophotometry; assay type: physicochemical; conditions: PBS with hydroxypropyl-alpha cyclodextrin
[8] = test system: Oryctolagus cuniculus; assay: Toxicity in New Zealand albino rabbit model of carbomer-induced hypertensive eye glaucoma assessed as induction of eye irritation at 0.07% using compound complexed with cyclodextrin directly instilled into conjunctive pocket measured 24 hrs post drug administration; assay type: organism-based; conditions: in vivo, topical_or_ocular
[9] = Equilibrium solubility in pH 7.4 PBS in presence of hydroxypropyl-gamma cyclodextrin incubated for 48 hrs at 25 degC by spectrophotometry; assay type: physicochemical; conditions: PBS with hydroxypropyl-gamma cyclodextrin
[10] = Aqueous solubility in pH 7.4 PBS in presence of hydroxypropyl-beta cyclodextrin incubated for 48 hrs at 25 degC by spectrophotometry; assay type: physicochemical; conditions: PBS with hydroxypropyl-beta cyclodextrin
[11] = test system: Oryctolagus cuniculus; assay: as §1, with “as” for “as time duration showing reduction in”, “administration (reference value: 45 to 50 mmHg)” for “administration”; assay type: functional
[12] = test system: Oryctolagus cuniculus; assay: Toxicity in New Zealand albino rabbit model of carbomer-induced hypertensive eye glaucoma assessed as induction of eye irritation at 2% directly instilled into conjunctive pocket measured 24 hrs post drug administration; assay type: organism-based; conditions: in vivo, topical_or_ocular
[13] = Aqueous solubility in pH 7.4 PBS in presence of gamma-cyclodextrin incubated for 48 hrs at 25 degC by spectrophotometry; assay type: physicochemical; conditions: PBS with gamma-cyclodextrin
[14] = Aqueous solubility in pH 7.4 PBS incubated for 48 hrs at 25 degC by spectrophotometry; assay type: physicochemical
[15] = test system: Oryctolagus cuniculus; assay: as §1, with “as” for “as time duration showing reduction in”, “0.37%” for “0.07%”, “administration (reference value: 45 to 50 mmHg)” for “administration”; assay type: functional
[16] = test system: Oryctolagus cuniculus; assay: Toxicity in New Zealand albino rabbit model of carbomer-induced hypertensive eye glaucoma assessed as induction of eye irritation at 0.37% using compound complexed with cyclodextrin directly instilled into conjunctive pocket measured 24 hrs post drug administration; assay type: organism-based; conditions: in vivo, topical_or_ocular
[17] = test system: Oryctolagus cuniculus; assay: as §1, with “0.37%” for “0.07%”; assay type: functional
[18] = test system: Oryctolagus cuniculus; assay: Antiglaucoma activity in New Zealand albino rabbit model of carbomer-induced hypertensive eye glaucoma assessed as intraocular pressure at 0.37% using compound complexed with cyclodextrin directly instilled into conjunctive pocket measured 1 hr post drug administration (reference value: 45 to 50 mmHg); assay type: functional

solubility at 48 h [1] [µg/mL] | K [3] [M⁻¹] | solubility at 48 h [4] [µg/mL] | solubility at 48 h [6] [µg/mL] | solubility at 48 h [7] [µg/mL] | solubility thermodynamic at 48 h [9] [µg/mL] | solubility at 48 h [10] [µg/mL] | solubility at 48 h [13] [µg/mL] | solubility at 48 h [14] [µg/mL] | Structure (SMILES) | Time [2] [h] | Activity [5] [mmHg] | Activity [8] | Activity [11] [mmHg] | Activity [12] | Activity [15] [mmHg] | Activity [16] | Time [17] [h] | Activity [18] [mmHg]
174 | 143.75 | 203 | 278 | 141 | 700 | 212 | 232 | 87 (≈ 219 µM) | Cc1ccc(S(=O)(=O)NC(=O)NCCc2ccc(S(N)(=O)=O)cc2)cc1 | 20 | 36 | Toxic | 35 | Toxic |  |  |  | 
1810 | 76.3 | 2240 | 2330 | 1580 | 3700 | 2170 | 2260 | 972 (≈ 2420 µM) | NS(=O)(=O)c1ccc(CCNC(=O)NS(=O)(=O)c2ccc(F)cc2)cc1 |  |  |  |  | Toxic | 35 | Toxic | 20 | 36
